Activity and growth data for 20 molecules are collected here from ChEMBL document CHEMBL3045943, “Novel N-aryl(alkaryl)-2-[(3-R-2-oxo-2H-[1,2,4]triazino[2,3-c]quinazoline-6-yl)thio]acetamides: synthesis, cytotoxicity, anticancer activity, COMPARE analysis and docking” (2013).

Format in all cases: functional
Test [1] deals with Photobacterium leiognathi. The experiment in a line: Growth inhibition of Photobacterium leiognathi Sh1 assessed as bio-luminescence at 0.25 mg/ml after 16 to 18 hr by chronic action test relative to control. Set-up: scale not given: the % may be the effect or the level left.
For a further test, the system named is SR. The experiment in a line: Cytotoxicity against Homo sapiens (human) SR cells assessed as cell growth at 10 uM after 48 hr by SRB assay relative to control. The settings on record: read-out: Activity. For orientation: Sulforhodamine B stains cellular protein and so reports cell mass.
Test [2] concerns Photobacterium leiognathi. Nature of the test: Growth inhibition of Photobacterium leiognathi Sh1 assessed as bio-luminescence at 0.025 mg/ml after 16 to 18 hr by chronic action test relative to control. The arrangement: scale not given: the % may be the effect or the level left.
The subject of test [3] is Photobacterium leiognathi. The experiment in a line: Growth inhibition of Photobacterium leiognathi Sh1 assessed as bio-luminescence at 0.1 mg/ml after 10 min by acute action test relative to control. Set-up: scale not given: the % may be the effect or the level left.
Test [4] relates to Photobacterium leiognathi. Nature of the test: Growth inhibition of Photobacterium leiognathi Sh1 assessed as bio-luminescence at 0.25 mg/ml after 10 min by acute action test relative to control. Set-up: scale not given: the % may be the effect or the level left.
Test [5] concerns Photobacterium leiognathi. The experiment in a line: Growth inhibition of Photobacterium leiognathi Sh1 assessed as bio-luminescence at 0.025 mg/ml after 10 min by acute action test relative to control. The arrangement: scale not given: the % may be the effect or the level left.
For test [6], the system named is Photobacterium leiognathi. Nature of the test: Growth inhibition of Photobacterium leiognathi Sh1 assessed as bio-luminescence at 0.1 mg/ml after 16 to 18 hr by chronic action test relative to control. Set-up: scale not given: the % may be the effect or the level left.

For the molecule `Cc1ccc(CNC(=O)CSc2nc3ccccc3c3nc(=O)c(C)nn23)cc1`, the Activity in test [1] was 150%; in test [2] it was 122.2%; in test [3], 100%; in test [4], 128.6%; in test [5], 88.3%; in test [6] it was 212.8%. The growth at 10 µM with SR is 81.8%.

As to `COc1ccccc1CNC(=O)CSc1nc2ccccc2c2nc(=O)c(C)nn12`, the Activity is 188% in test [1]; 93.3% in test [2]; 110% in test [3]; 139.4% in test [4]; 89.2% in test [5]; 160% in test [6]. Moreover, the growth at 10 µM in the test on SR came to 75.6%.

Regarding `COc1ccc(CNC(=O)CSc2nc3ccccc3c3nc(=O)c(C)nn23)cc1`, the Activity in test [1] is on record as 180%; in test [2], 138.7%; in test [3], 130%; in test [4], 151.5%; in test [5] it was 92.3%; in test [6], 176%. The growth at 10 µM in the test on SR was 71.5%.

Turning to `O=C(CSc1nc2ccccc2c2nc(=O)c(-c3ccccc3)nn12)NCc1cccc(C(F)(F)F)c1`, the Activity was determined as 0% in test [1]; 13.33% in test [2]; 33.33% in test [3]; 17.78% in test [4]; 66.67% in test [5]; 10.67% in test [6].

As to `Cc1ccc(-c2nn3c(SCC(=O)Nc4ccc(C(F)(F)F)cc4)nc4ccccc4c3nc2=O)cc1`, the Activity in test [1] came out at 100%; in test [2], 51.2%; in test [3], 113.3%; in test [4], 142.5%; in test [5], 103.3%; in test [6] it was 116.7%. In the test on SR, the growth at 10 µM worked out at 66%.

For `Cc1nn2c(SCC(=O)Nc3ccccc3F)nc3ccccc3c2nc1=O`, the Activity in test [1] worked out at 142.86%; in test [2], 142.86%; in test [3], 73.03%; in test [4], 50.56%; in test [5], 84.27%; in test [6], 196.43%.

As to `O=C(CSc1nc2ccccc2c2nc(=O)c(-c3ccccc3)nn12)Nc1cccc(F)c1`, the Activity in test [1] is reported as 92.59%; in test [2], 44.44%; in test [3], 90.91%; in test [4] it was 96.36%; in test [5], 94.55%; in test [6], 38.89%.

Regarding `Cc1ccc(-c2nn3c(SCC(=O)Nc4cccc(F)c4)nc4ccccc4c3nc2=O)cc1`, the Activity in test [1] is 41.46%; in test [2], 69.51%; in test [3] it was 93.48%; in test [4], 65.22%; in test [5], 97.83%; in test [6], 32.93%.

As to `Cc1ccc(-c2nn3c(SCC(=O)Nc4ccc(F)cc4)nc4ccccc4c3nc2=O)cc1`, the Activity came to 166.67% in test [1]; 250% in test [2]; 36.73% in test [3]; 8.16% in test [4]; 75.51% in test [5]; 133.33% in test [6].

`O=C(CSc1nc2ccccc2c2nc(=O)c(-c3ccccc3)nn12)Nc1cccc(Cl)c1`: the Activity in test [1] is recorded as 101.39%; in test [2] it was 101.39%; in test [3], 109.52%; in test [4] it was 59.52%; in test [5], 104.76%; in test [6], 100%.

As for `Cc1ccc(-c2nn3c(SCC(=O)Nc4ccc(Cl)cc4)nc4ccccc4c3nc2=O)cc1`, the Activity in test [1] was determined as 37.5%; in test [2], 75%; in test [3], 63.83%; in test [4] it was 31.91%; in test [5] it was 68.09%; in test [6], 93.75%.

Turning to `Cc1ccc(-c2nn3c(SCC(=O)Nc4ccccc4[N+](=O)[O-])nc4ccccc4c3nc2=O)cc1`, the Activity in test [1] is reported as 50%; in test [2], 93%; in test [3], 36%; in test [4], 62.5%; in test [5] it was 83.3%; in test [6], 250%.

Turning to `Cc1nn2c(SCC(=O)Nc3ccccc3)nc3ccccc3c2nc1=O`, the Activity in test [1] worked out at 57.78%; in test [2], 88.89%; in test [3], 98.53%; in test [4], 95.59%; in test [5], 95.59%; in test [6], 61.11%.

For the molecule `O=C(CSc1nc2ccccc2c2nc(=O)c(-c3ccccc3)nn12)Nc1ccccc1`, the Activity in test [1] stood at 80.56%; in test [2], 90.28%; in test [3], 78.57%; in test [4], 47.62%; in test [5], 95.24%; in test [6] it was 83.33%.

Consider `COc1ccc(-c2nn3c(SCC(=O)Nc4ccccc4C)nc4ccccc4c3nc2=O)cc1`, for which the Activity was determined as 94.55% in test [1]; 90.91% in test [2]; 82.46% in test [3]; 68.42% in test [4]; 96.49% in test [5]; 94.55% in test [6].

Consider `Cc1cccc(NC(=O)CSc2nc3ccccc3c3nc(=O)c(C)nn23)c1`, for which the Activity in test [1] amounted to 14.29%; in test [2], 196.43%; in test [3], 98.92%; in test [4], 73.12%; in test [5], 96.77%; in test [6], 178.57%.

For the molecule `COc1ccccc1NC(=O)CSc1nc2ccccc2c2nc(=O)c(-c3ccccc3)nn12`, the Activity in test [1] came out at 18.18%; in test [2], 22.73%; in test [3], 63.46%; in test [4], 53.85%; in test [5], 71.15%; in test [6] it was 11.36%.

On to `Cc1nn2c(SCC(=O)Nc3ccccc3C(F)(F)F)nc3ccccc3c2nc1=O`, for which the Activity in test [1] was found to be 97.14%; in test [2], 100%; in test [3], 86.67%; in test [4] it was 88.89%; in test [5], 88.89%; in test [6], 100%.

Consider `O=C(CSc1nc2ccccc2c2nc(=O)c(-c3ccccc3)nn12)Nc1cccc(C(F)(F)F)c1`, for which the Activity turned out to be 187.5% in test [1]; 187.5% in test [2]; 100% in test [3]; 46.67% in test [4]; 96.67% in test [5]; 203.13% in test [6].

Consider `CN(C)[C@@H]1C(O)=C(C(N)=O)C(=O)[C@@]2(O)C(O)=C3C(=O)c4c(O)cccc4[C@@](C)(O)[C@H]3C[C@@H]12` [TETRACYCLINE], for which the Activity in test [1] stood at 0%; in test [2], 0%; in test [3] it was 9.1%; in test [4], 0%; in test [5], 80.7%; in test [6], 0%.
